Assays:
MBP-VirF [1] = target: T1, MBP-VirF (Shigella flexneri, UniProt P0A2T1); experiment: Fluorescence-based thermal shift assay (Sypro Orange), VirF; format: binding
T1 construct: made in house; host or cells: E. coli KS 1000, plasmid pMALvirF
Method: Binding of SE-1 to purified VirF was tested by comparing the VirF melting temperature (Tm) in the absence and presence of SE-1 using a thermal shift assay with the fluorescent dye Sypro Orange (Molecular Probes). This method is also known as differential scanning fluorimetry or DSF. As a control, we tested binding of SE-1 to the purified, unrelated, MBP-NS1-NTD protein (greater than 95% pure). […] The reactions were carried out in 0.1 ml PCR low profile 8-tube strips with optically clear flat caps (USA Scientific) in a StepOnePlus™ Real-Time PCR System (Applied Biosystems), heating from 25 to 99° C. in increments of 0.8° C. The data was analyzed using the Boltzmann sigmoidal model in the software Prism (GraphPad). Data points before and after the fluorescence intensity minimum and maximum, respectively, were excluded from fitting. The ΔTm values are the average of three independent experiments with two replicates in each experiment. A single, representative, experiment is shown.

virB = experiment: Shigella gene expression qRT-PCR, virB; format: cell-based, S. flexneri; conditions: for Average ΔΔCt / Ct / RQ (2^−ΔΔCt) / ΔΔCt^1 (normalized to gapA) / ΔΔCt^2 (normalized to rrsA): virB, example data
Method: Real-time quantitative reverse transcription PCR (qRT-PCR) was performed to test the effects of SE-1 on the expression of the VirF regulated genes virB, icsA, icsB and ipaB. The gapA and rrsA transcripts were used as internal controls. These are constitutively expressed Shigella genes commonly used to normalize mRNA levels. S. flexneri strain SME4331, which carries a null mutation in ipgD (ipgD), was grown at 30° C. overnight in TSB with ampicillin, diluted into the same medium to an OD600 of ˜0.1, and 1 ml aliquots further grown at 30° C. (DMSO only) or at 37° C. (SE-1 at 20 or 40 μM, or DMSO only, all 0.3% DMSO). Cells were grown to an OD600 of 1.0 (˜2.5 h) and RNA was isolated using an RNeasy MiniElute Cleanup Kit (Qiagen, Germantown, Md.), with DNA contamination eliminated using a Turbo DNase Kit (Ambion, Austin, Tex.). Complementary DNA (cDNA) was synthesized by random priming using a cDNA Reverse Transcription Kit (Applied Biosystems, Foster City, Calif.). Primers were tested for PCR specificity using genomic DNA template to ensure a single amplicon of the expected size for each primer pair, and validated using 5-fold dilutions of cDNA (2000 to 0.0256 ng) to ensure a linear plot of cycle threshold (Ct) versus cDNA concentration. Validated primer sets were used to test mRNA profiles in reactions that contained 10 ng of cDNA, 10 μl of SYBR green master mix (Applied Biosystems), specific primers (0.5 μM each) and water to a final volume of 20 μl, using a Step One Plus Real-Time PCR System (Applied Biosystems). The data was analyzed using the 2^−ΔΔCt method, and also by Applied Biosystems real-time analysis software. […] In brief, ΔΔCt values [ΔΔCt=(Ct,Target−Ct,Internal Control)SE-1−(Ct,Target−Ct,Internal Control)no SE-1] were separately obtained for each sample relative to two internal controls, gapA and rrsA. The ΔΔCt values relative to the two internal controls for each sample were averaged and then used to calculate the relative expression levels (2^−ΔΔCt). As a control, we also normalized each internal control to the other internal control. Control reactions used templates generated without reverse transcriptase to ensure low genomic DNA contamination. To ensure that products were not likely to be due to primer dimer artifacts, additional control samples were performed in which reaction mixtures contained primers alone (no template).

MBP-VirF [2] = target: T1, MBP-VirF; experiment: EMSA in vitro DNA binding by VirF (MBP-VirF); format: biochemical; conditions: purified MBP-VirF
Method: The IPTG inducible MBP-VirF expression plasmid, pMALvirF, was constructed by cloning virF downstream and in-frame with malE (encoding maltose binding protein, MBP) in the vector pMAL-c2X (New England Biolabs, Beverly, Mass.). MBP-VirF protein (referred to as VirF for simplicity) was purified using amylose affinity chromatography at 4° C. Briefly, pMALvirF was transformed into E. coli strain KS 1000 (New England Biolabs). The cells were grown to an OD600 of 0.5, transferred to 15° C., 0.1 mM IPTG was added, and then incubated overnight with shaking Cells were harvested and resuspended in 10 ml of binding buffer (20 mM Tris, 500 mM NaCl, 1 mM EDTA 1 mM DTT, pH 7.4). Cells were lysed by three freeze thaw cycles with lysozyme (0.4 mg/ml), tris (2-carboxyethyl)phosphine (TCEP, 1 mM) and phenylmethylsulfonyl fluoride (PMSF, 1 mM), at −80° C., followed by sonication and then centrifuged to remove cell debris. […]
Binding of purified VirF to a DNA fragment containing the VirF binding site at virB was analyzed by electrophoretic mobility shift assay (EMSA) (68), in the absence or presence of SE-1. […] Gels were scanned using an Odyssey infrared imager (LI-COR, Lincoln, Nebr.), and quantified using Odyssey software, version 3.0.30. […]

T1 sequence (P0A2T1 whole entry): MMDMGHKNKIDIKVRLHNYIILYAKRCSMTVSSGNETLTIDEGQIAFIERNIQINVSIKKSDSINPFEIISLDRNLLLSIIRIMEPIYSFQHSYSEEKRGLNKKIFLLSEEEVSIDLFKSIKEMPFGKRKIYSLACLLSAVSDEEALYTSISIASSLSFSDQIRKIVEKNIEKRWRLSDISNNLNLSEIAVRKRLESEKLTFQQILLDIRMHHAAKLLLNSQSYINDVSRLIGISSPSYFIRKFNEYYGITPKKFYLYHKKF

CCCCN1C=C(c2ccc3ccccc3n2)C(C[N+](=O)[O-])c2ccccc21 (stereo not drawn) [Compound 1, 1-butyl-4-(nitromethyl)-3-quinolin-2-yl-4H-quinoline]
ΔTm for VirF (MBP-VirF [1]; 40 μM SE-1): 0.15 °C | increase of Tm of VirF (ΔTm) (MBP-VirF [1]; 80 μM SE-1, 1 μM VirF): 0.61 °C | maximal inhibition of virB expression (virB; 40 μM SE-1, P<0.05): more than two fold | Average ΔΔCt (virB; SE-1 20 μM): 1.13 | Ct (virB; SE-1 20 μM): 23.26 | RQ (2^−ΔΔCt) (virB; SE-1 20 μM): 0.46 | ΔΔCt^1 (normalized to gapA) (virB; SE-1 20 μM): 0.63 | ΔΔCt^2 (normalized to rrsA) (virB; SE-1 20 μM): 1.63 | Average ΔΔCt (virB; SE-1 40 μM): 1.47 | Ct (virB; SE-1 40 μM): 23.18 | RQ (2^−ΔΔCt) (virB; SE-1 40 μM): 0.36 | ΔΔCt^1 (normalized to gapA) (virB; SE-1 40 μM): 1.12 | ΔΔCt^2 (normalized to rrsA) (virB; SE-1 40 μM): 1.81 | inhibition of DNA binding by VirF (MBP-VirF [2]): similarly inhibits | inhibition of DNA binding by VirF (MBP-VirF [2]; listed as SE-1): fully inhibit DNA binding

Reference: patent publication US20140088144A1, “INHIBITING MICROBIAL INFECTIONS” (THE UNIVERSITY OF KANSAS, priority 2012, published 2014)
